Reference: patent US20060148850A1, “4-{'3-(Sulfonylamino) phenyl!'1-(cyclymethyl) piperidin-4-ylidene! methyl}benazmide derivativess as delta opioid receptor ligands for the treatment of pain, anxiety and functional gastrointestinal disorder” (AstraZeneca AB, priority 2003, published 2006)
Where two headings read alike, the source gives them in different places.

Key:
cloned human μ receptors = target: T1, cloned human μ receptors (Homo sapiens, UniProt P35372); test: Human μ receptor binding assay (125I-FK33824 displacement)
T1 construct: expressed in transfected cells; host or cells: Human 293S cells
T1 sequence (P35372 whole entry): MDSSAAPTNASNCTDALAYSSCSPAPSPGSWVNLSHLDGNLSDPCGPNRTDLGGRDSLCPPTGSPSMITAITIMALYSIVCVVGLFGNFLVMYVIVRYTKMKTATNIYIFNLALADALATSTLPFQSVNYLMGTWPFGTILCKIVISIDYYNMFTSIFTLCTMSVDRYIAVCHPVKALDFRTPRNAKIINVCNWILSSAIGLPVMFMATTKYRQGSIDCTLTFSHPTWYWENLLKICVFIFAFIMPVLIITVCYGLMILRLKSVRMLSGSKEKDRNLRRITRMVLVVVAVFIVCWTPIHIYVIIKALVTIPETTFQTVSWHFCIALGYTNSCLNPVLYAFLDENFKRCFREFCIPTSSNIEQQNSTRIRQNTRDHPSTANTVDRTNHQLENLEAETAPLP

cloned human δ receptors [1] = target: T2, cloned human δ receptors (Homo sapiens, UniProt P41143); test: Human δ receptor binding assay (125I-Deltorphin II displacement)
T2 construct: expressed in transfected cells; host or cells: HEK-293S cells
T2 sequence (P41143 whole entry): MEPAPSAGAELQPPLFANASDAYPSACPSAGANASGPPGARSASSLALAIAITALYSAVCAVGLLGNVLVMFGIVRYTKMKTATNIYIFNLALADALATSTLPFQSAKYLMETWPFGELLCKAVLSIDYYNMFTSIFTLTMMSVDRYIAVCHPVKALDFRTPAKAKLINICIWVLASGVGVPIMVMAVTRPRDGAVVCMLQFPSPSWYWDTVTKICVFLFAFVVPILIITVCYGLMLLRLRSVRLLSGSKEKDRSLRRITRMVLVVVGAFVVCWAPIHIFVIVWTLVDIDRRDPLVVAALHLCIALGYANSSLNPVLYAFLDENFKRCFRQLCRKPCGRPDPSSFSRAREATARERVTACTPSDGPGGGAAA

cloned human δ receptors [2] = target: T2, cloned human δ receptors; test: Human δ receptor functional assay (GTP[γ]35S binding), high and low receptor expression; assay type: biochemical
Experimental: Human 293S cells expressing cloned human κ, δ and μ receptors and neomycin resistance are grown in suspension at 37° C. and 5% CO2 in shaker flasks containing calcium-free DMEM10% FBS, 5% BCS, 0.1% Pluronic F-68, and 600 μg/ml geneticin.
Cells are pelleted and resuspended in lysis buffer (50 mM Tris, pH 7.0, 2.5 mM EDTA, with PMSF added just prior to use to 0.1 mM from a 0.1 M stock in ethanol), incubated on ice for 15 min, then homogenized with a polytron for 30 sec. The suspension is spun at 1000 g (max) for 10 min at 4° C. The supernatant is saved on ice and the pellets resuspended and spun as before. The supernatants from both spins are combined and spun at 46,000 g(max) for 30 min. The pellets are resuspended in cold Tris buffer (50 mM Tris/Cl, pH 7.0) and spun again. The final pellets are resuspended in membrane buffer ( 50 mM Tris, 0.32 M sucrose, pH 7.0). Aliquots (1 ml) in polypropylene tubes are frozen in dry ice/ethanol and stored at −70° C. until use. The protein concentrations are determined by a modified Lowry assay with sodium dodecyl sulfate.
The agonist activity of the compounds is measured by determining the degree to which the compounds receptor complex activates the binding of GTP to G-proteins to which the receptors are coupled. In the GTP binding assay, GTP[γ]^35S is combined with test compounds and membranes from HEK-293S cells expressing the cloned human opioid receptors or from homogenised rat or mouse brain. Agonists stimulate GTP[γ]^35S binding in these membranes. The EC50 and Emax values of compounds are determined from dose-response curves. Right shifts of the dose response curve by the delta antagonist naltrindole are performed to verify that agonist activity is mediated through delta receptors. For human […] functional assays, EC50 (low) is measured when the human δ receptors used in the assay were expressed at lower levels in comparison with those used in determining EC50 (high). The Emax values were determined in relation to the standard δ agonist SNC80, i.e., higher than 100% is a compound that have better efficacy than SNC80.
Rat brain membranes are thawed at 37° C., passed 3 times through a 25-gauge blunt-end needle and diluted in the GTPYS binding (50 mM Hepes, 20 mM NaOH, 100 mM NaCl, 1 mM EDTA, 5 mM MgCl2, pH 7.4, Add fresh: 1 mM DTT, 0.1% BSA). 120 μM GDP final is added membranes dilutions. The EC50 and Emax of compounds are evaluated from 10-point dose-response curves done in 300 μl with the appropriate amount of membrane protein (20 μg/well) and 100000-130000 dpm of GTPγ^35S per well (0.11-0.14 nM). The basal and maximal stimulated binding are determined in absence and presence of 3 μM SNC-80. The assay performed on HEK 293s cells stably expressing cloned Delta receptors is done in a slightly different buffer (50 mM Hepes, 20 mM NaOH, 200 mM NaCl, 1 mM EDTA, 5 mM MgCl2, pH 7.4, Add fresh: 0.5% BSA, no DTT) and with a 3 μM final conc. of GDP.

cloned human κ receptors = cloned human κ receptors (Homo sapiens, UniProt P41145); test: Human κ receptor binding assay (125I-DPDYN displacement); conditions: Table 1
Chain of cloned human κ receptors (P41145 whole entry): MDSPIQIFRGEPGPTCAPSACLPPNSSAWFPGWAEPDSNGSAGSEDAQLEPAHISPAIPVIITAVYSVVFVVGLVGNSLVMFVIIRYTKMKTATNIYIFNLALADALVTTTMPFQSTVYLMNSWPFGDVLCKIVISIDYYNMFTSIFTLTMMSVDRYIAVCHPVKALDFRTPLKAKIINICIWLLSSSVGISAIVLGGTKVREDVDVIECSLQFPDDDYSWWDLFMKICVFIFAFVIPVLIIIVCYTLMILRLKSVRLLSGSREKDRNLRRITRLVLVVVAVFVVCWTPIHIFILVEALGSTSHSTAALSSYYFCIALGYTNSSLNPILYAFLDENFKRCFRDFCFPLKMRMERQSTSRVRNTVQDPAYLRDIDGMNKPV

[3] = target: T3, δ receptors in rat brain membranes (Rattus norvegicus, UniProt P33533); test: Rat brain functional assay (GTPγ35S binding); assay type: biochemical
T3 construct: membranes from HEK-293S cells expressing the cloned human opioid receptors or from homogenised rat or mouse brain; from tissue; host or cells: rat brain
T3 sequence (P33533 whole entry): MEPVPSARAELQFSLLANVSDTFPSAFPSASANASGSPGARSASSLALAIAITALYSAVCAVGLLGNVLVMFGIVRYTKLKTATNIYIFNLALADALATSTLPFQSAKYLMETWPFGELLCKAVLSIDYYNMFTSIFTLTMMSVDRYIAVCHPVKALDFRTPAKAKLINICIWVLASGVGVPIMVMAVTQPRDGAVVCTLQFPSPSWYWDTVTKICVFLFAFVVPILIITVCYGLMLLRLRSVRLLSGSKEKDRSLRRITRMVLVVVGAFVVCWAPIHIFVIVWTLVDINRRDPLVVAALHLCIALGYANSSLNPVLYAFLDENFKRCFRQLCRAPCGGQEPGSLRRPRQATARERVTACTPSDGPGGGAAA
Experimental: Rat brains are weighed and rinsed in ice-cold PBS (containing 2.5 mM EDTA, pH 7.4). The brains are homogenized with a polytron for 30 sec (rat) in ice-cold lysis buffer (50 mM Tris, pH 7.0,2.5 mM EDTA, with phenylmethylsulfonyl fluoride added just prior use to […] from a 0.5M stock in DMSO:ethanol).
The agonist activity of the compounds is measured by determining the degree to which the compounds receptor complex activates the binding of GTP to G-proteins to which the receptors are coupled. In the GTP binding assay, GTP[γ]^35S is combined with test compounds and membranes from HEK-293S cells expressing the cloned human opioid receptors or from homogenised rat or mouse brain. […] The EC50 and Emax values of compounds are determined from dose-response curves. […] For human a receptor functional assays, EC50 (low) is measured when the human δ receptors used in the assay were expressed at lower levels in comparison with those used in determining EC50 (high). […]
Rat brain membranes are thawed at 37° C., passed 3 times through a 25-gauge blunt-end needle and diluted in the GTPYS binding (50 mM Hepes, 20 mM NaOH, 100 mM NaCl, 1 mM EDTA, 5 mM MgCl2, pH 7.4, Add fresh: 1 mM DTT, 0.1% BSA). […] The EC50 and Emax of compounds are evaluated from 10-point dose-response curves done in 300 μl with the appropriate amount of membrane protein (20 μg/well) and 100000-130000 dpm of GTPγ^35S per well (0.11-0.14 nM). […]

[4] = Table 2, lower expression, relative to SNC80, range over compounds 1,2,4,5, read-out: Human δ %EMax (low)

Compound | IC50 (cloned human μ receptors) | IC50 (cloned human δ receptors [1]) | EC50 (cloned human δ receptors [2]) | Emax (cloned human δ receptors [2]; [4]) | IC50 (cloned human κ receptors) | EC50 [3] | Emax ([3]; Table 1, rat brain membranes, relative to SNC80) | Emax (cloned human δ receptors [2]; Table 1, higher expression, relative to standard δ agonist SNC80, read-out: Human δ % EMax (high))
CCN(CC)C(=O)c1ccc(C(=C2CCN(Cc3cccs3)CC2)c2cccc(NS(C)(=O)=O)c2)cc1 [Compound 1, N,N-diethyl-4-{{3-[(methylsulfonyl)amino]phenyl}[1-(thien-2-ylmethyl)piperidin-4-ylidene]methyl}benzamide] | 77.9 to 301 nM | 0.18 to 0.35 nM | 5.25 to 19.3 nM | 106 to 126% |  |  |  | 
CCN(CC)C(=O)c1ccc(C(=C2CCN(Cc3ccco3)CC2)c2cccc(NS(C)(=O)=O)c2)cc1 [Compound 2, N,N-diethyl-4-[[l-(2-furanylmethyl)-4-piperidinylidene][3-[(methylsulfonyl)amino]phenyl]methyl]-benzamide] | 77.9 to 301 nM | 0.18 to 0.35 nM | 5.25 to 19.3 nM | 106 to 126% |  |  |  | 
CCN(CC)C(=O)c1ccc(C(=C2CCN(Cc3ccccc3)CC2)c2cccc(NS(C)(=O)=O)c2)cc1 [Compound 3, N,N-diethyl-4-[[1-(phenylmethyl)-4-piperidinylidene][3-[(methylsulfonyl)amino]phenyl]methyl]-benzamide] | 35 nM | 0.56 nM | 0.53 nM |  | 1050 nM | 1.32 nM | 145% | 99%
CCN(CC)C(=O)c1ccc(C(=C2CCN(Cc3cccnc3)CC2)c2cccc(NS(C)(=O)=O)c2)cc1 [Compound 4, N,N-diethyl-4-[[3-[(methylsulfonyl)amino]phenyl][1-(3-pyridinylmethyl)4-piperidinylidene]methyl]-benzamide] | 77.9 to 301 nM | 0.18 to 0.35 nM | 5.25 to 19.3 nM | 106 to 126% |  |  |  | 
CCN(CC)C(=O)c1ccc(C(=C2CCN(Cc3nccs3)CC2)c2cccc(NS(C)(=O)=O)c2)cc1 [Compound 5] | 77.9 to 301 nM | 0.18 to 0.35 nM | 5.25 to 19.3 nM | 106 to 126% |  |  |  | 
